This note sets out measurements from publication PMC10709135 (iScience, 2023).

The target in this experiment is T1, fl-KcsA (full-length KcsA) (Streptomyces lividans, UniProt P0A334).
T1 sequence (P0A334 1-160): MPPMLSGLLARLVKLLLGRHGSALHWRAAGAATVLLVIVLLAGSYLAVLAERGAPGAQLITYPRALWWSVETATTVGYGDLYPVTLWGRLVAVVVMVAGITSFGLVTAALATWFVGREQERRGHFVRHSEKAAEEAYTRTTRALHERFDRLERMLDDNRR
Put plainly: SPR, KcsA immobilised on SAM chip. It counts as binding. The note with it: specific blocker; type of constant not given. A general note: Surface plasmon resonance follows binding to a sensor surface in real time, without labels.

Consider `CCCC[N+](CCCC)(CCCC)CCCC` [TBA], for which the binding affinity result is given as “The binding affinity of TBA to KcsA deduced from the present SPR study”.
